Converted amounts (≈) assume the structure as drawn. The source made the active and inactive calls. The calls are words filed in the database; no cut-off is given here.
Experiments:
Cryptococcus neoformans = assay: Antimicrobial activity against Cryptococcus neoformans TIMM 0354; type: functional, organism-based
[1] = tested on: Staphylococcus epidermidis; assay: Antimicrobial activity against Staphylococcus epidermidis 13889; type: functional, organism-based
[2] = molecular target: Human immunodeficiency virus type 1 integrase (Human immunodeficiency virus 1) (UniProt Q7ZJM1); assay: Inhibition of HIV1 integrase at 10 ug/ml
Escherichia coli = assay: Antimicrobial activity against Escherichia coli upto 12.5 ug/ml; type: functional, organism-based
Staphylococcus aureus [3] = assay: Antimicrobial activity against Staphylococcus aureus 12732; type: functional, organism-based
Candida albicans = assay: Antimicrobial activity against Candida albicans IFO 1269; type: functional, organism-based
Enterococcus faecium = assay: Antimicrobial activity against Enterococcus faecium 12367; type: functional, organism-based
Enterococcus faecalis = assay: Antimicrobial activity against Enterococcus faecalis 12964; type: functional, organism-based
Pseudomonas aeruginosa = assay: Antimicrobial activity against Pseudomonas aeruginosa upto 12.5 ug/ml; type: functional, organism-based
Staphylococcus aureus [4] = assay: Antimicrobial activity against methicillin-resistant Staphylococcus aureus; type: functional, organism-based

Human immunodeficiency virus type 1 integrase (Human immunodeficiency virus 1), sequence (Q7ZJM1 as listed by the source): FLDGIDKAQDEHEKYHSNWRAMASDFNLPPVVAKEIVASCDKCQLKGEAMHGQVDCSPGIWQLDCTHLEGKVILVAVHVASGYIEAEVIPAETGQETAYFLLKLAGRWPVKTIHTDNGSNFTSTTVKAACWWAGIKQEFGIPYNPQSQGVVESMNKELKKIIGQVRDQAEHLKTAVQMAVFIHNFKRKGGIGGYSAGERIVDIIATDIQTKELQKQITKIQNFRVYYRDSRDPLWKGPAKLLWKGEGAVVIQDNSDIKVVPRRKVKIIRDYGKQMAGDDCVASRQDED

In the case of `NC(=O)c1ccc(Br)[nH]1`, the IC50 (Cryptococcus neoformans) is reported as 3.13 µg/mL (≈ 16.6 µM), the IC50 [1] is reported as 3.13 µg/mL (≈ 16.6 µM) and the Activity [2] is reported as “inactive”. For the same compound, the Activity (Escherichia coli) was “inactive”, the IC50 (Staphylococcus aureus [3]) was 0.78 µg/mL (≈ 4.13 µM) and the IC50 (Candida albicans) was 6.25 µg/mL (≈ 33.1 µM). The IC50 (Enterococcus faecium) was 3.13 µg/mL (≈ 16.6 µM), the IC50 (Enterococcus faecalis) was 6.25 µg/mL (≈ 33.1 µM) and the Activity (Pseudomonas aeruginosa) was “inactive”. It also gave an IC50 (Staphylococcus aureus [4]) of 3.13 µg/mL (≈ 16.6 µM).
`COCNC(=O)c1ccc(Br)[nH]1` was tested, and the Activity [2] was “inactive”, the Activity (Escherichia coli) was “inactive” and the Activity (Pseudomonas aeruginosa) was “inactive”.
Compound `CC1=CCC[C@@H]2[C@@](C)(CC/C(C)=C/Cn3c[n+](C)c4ncnc(N)c43)[C@H](C)CC[C@@]12C.[Cl-]` [AGELASINE B] has an IC50 (Cryptococcus neoformans) of 3.13 µg/mL, an IC50 [1] of 1.56 µg/mL and an IC50 (Staphylococcus aureus [3]) of 0.78 µg/mL. The IC50 (Candida albicans) was over 12.5 µg/mL, the IC50 (Enterococcus faecium) was 3.13 µg/mL and the IC50 (Enterococcus faecalis) was 6.25 µg/mL. It also gave an IC50 (Staphylococcus aureus [4]) of 3.13 µg/mL.
With `C=C1CC[C@]2(C)[C@@H](C)CCC[C@]2(C)[C@H]1CC/C(C)=C/Cn1c[n+](C)c2ncnc(N)c21` the Activity [2] was “inactive”, the Activity (Escherichia coli) was “inactive” and the Activity (Pseudomonas aeruginosa) was “inactive”.
